# Target: T1, integrins haα4 and β1 (VLA-4) expressed on CHO cells (Homo sapiens, UniProt P05556+P13612)
# T1 construct: expressed in transfected cells; host or cells: CHO cells
# Experiment: In vitro Evaluation Test (1): binding of Eu3+-hVCAM-1 D1D7-IgG to CHO cells expressing integrins α4 and β1
# Conditions: inhibition of Eu3+-hVCAM-1 D1D7-IgG binding to CHO cells expressing α4β1; Ki calculated from IC50
# Description: CHO cells forcedly expressed by the transduction of integrins haα4 and β1 were seeded in a Coster 3599 plate (3×10^4 cells/100 μl/well) and they were cultured for 2 days. After the medium was washed with buffer A* twice, 50 μl/well of Eu^3+-hVCAM-1 D1D7-IgG diluted to […] with an assay buffer ** was added. To the resulting well was added 50 μl/well of a test compound diluted with 2% DMS0-assay buffer (in the presence or absence of 6% human serum albumin) (to a well subjected to Scatchard analysis was added a solution diluted in another manner). After stirring for 5 minutes on a plate mixer, the plate was allowed to stand at room temperature for 1 hour. Then, the plate was washed four times with the buffer A and added with 100 μl/well of an enhancement reagent (DELFIA). The plate was shaken for 5 minutes on a plate mixer, followed by measurement of fluorescence intensity by a time-resolved fluorometer (DELFIA Wallac). From the binding ratio available by the following calculation formula: ((FT−FNS)−(FI−FNS))/(FT−FNS)×100, the IC50 (concentration inhibiting 50% of binding of CHO cells with hVCAM-1 D1D7-IgG) of the test compound was determined. In the above formula, FT means the fluorescence intensity of the well free of the test compound, FNS means the fluorescence intensity of the well free of the test compound and anti-hα4 antibody (SG/73), and FI means the fluorescence intensity of the well containing the test compound. The Kd indicating the binding strength and Bmax (maximum binding) were estimated within a range of 0.06 to 20 nM in accordance with the Scatchard analysis method.
# The value Ki was calculated based on:
# [formula] ((L) means a ligand concentration). (* buffer A: 25 mM HEPES (pH 7.5), 150 mM NaCl, 1 mM Ca^2+, 1 MM Mg^2+, 4 mM Mn^2+; ** assay buffer: 25 mM HEPES (pH 7.5), 150 mM NaCl, 1 mM Ca^2+, 1 mM Mg^2+, 4 mM Mn^2+, 0.1% BSA, 20 μM DTPA, with/without 6% ALBUMIN, HUMAN SERUM (C/N A-1653, SIGMA)) In vitro Evaluation Test (2)
# T1 sequence (P13612 34-1032): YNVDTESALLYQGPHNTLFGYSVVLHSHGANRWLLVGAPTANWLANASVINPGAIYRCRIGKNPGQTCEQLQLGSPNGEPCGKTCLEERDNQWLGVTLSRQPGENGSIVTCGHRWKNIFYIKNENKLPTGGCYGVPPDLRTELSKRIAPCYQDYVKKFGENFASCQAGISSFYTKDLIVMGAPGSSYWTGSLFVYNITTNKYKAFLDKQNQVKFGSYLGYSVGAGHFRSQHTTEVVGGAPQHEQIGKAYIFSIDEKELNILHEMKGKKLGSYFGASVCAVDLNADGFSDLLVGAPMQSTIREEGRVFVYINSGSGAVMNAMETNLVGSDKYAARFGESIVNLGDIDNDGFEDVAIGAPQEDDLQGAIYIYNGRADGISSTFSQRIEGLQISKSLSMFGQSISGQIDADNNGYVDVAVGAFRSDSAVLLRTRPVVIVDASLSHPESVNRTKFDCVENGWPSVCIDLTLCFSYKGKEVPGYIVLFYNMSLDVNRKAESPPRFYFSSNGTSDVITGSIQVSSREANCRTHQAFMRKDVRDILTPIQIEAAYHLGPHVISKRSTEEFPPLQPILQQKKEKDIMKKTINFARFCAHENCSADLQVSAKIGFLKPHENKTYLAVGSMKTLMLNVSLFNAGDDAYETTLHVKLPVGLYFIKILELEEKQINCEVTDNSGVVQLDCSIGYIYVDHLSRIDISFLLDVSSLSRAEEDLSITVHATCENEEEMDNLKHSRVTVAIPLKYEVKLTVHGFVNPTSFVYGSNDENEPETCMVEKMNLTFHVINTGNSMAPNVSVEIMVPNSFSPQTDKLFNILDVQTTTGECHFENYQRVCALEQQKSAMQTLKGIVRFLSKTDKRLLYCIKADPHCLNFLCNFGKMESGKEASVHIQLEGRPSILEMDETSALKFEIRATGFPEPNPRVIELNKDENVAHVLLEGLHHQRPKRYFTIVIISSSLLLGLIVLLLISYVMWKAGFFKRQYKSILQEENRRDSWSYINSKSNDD
# T1 sequence (P05556 21-798): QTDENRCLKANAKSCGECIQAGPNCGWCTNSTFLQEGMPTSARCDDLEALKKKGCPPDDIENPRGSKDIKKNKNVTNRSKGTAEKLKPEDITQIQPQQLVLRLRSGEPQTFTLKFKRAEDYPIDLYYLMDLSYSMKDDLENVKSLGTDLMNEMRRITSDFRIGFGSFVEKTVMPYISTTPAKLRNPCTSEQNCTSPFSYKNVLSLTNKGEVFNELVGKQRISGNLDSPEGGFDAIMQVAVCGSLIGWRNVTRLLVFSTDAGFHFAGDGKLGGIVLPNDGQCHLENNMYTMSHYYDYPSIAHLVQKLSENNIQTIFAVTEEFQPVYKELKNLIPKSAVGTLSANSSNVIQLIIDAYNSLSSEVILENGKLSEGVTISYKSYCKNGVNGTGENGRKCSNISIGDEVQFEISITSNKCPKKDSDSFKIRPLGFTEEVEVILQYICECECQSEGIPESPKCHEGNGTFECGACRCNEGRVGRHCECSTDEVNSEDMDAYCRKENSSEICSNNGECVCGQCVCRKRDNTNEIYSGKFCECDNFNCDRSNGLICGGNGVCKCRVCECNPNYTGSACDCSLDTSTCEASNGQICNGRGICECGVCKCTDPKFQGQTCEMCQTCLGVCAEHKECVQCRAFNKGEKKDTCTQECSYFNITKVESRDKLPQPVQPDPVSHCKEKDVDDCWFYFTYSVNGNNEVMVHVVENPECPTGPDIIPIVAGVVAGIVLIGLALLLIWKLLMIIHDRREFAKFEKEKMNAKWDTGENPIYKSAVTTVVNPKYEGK
row,SMILES,Ki
1,"Cn1cc(C(=O)Nc2cc(F)c(CC(=O)N3C[C@@H](F)C[C@H]3CCN3CCC(C(=O)O)CC3)cc2Cl)c2ccccc21 [Example 109, 1-(2-(1-((5-Chloro-2-fluoro-4-((1-methyl-3-indolylcarbonyl)amino)phenyl)acetyl)-(4S)-fluoro-(2R)-pyrrolidinyl)ethyl)-4-piperidinecarboxylic acid]",25 nM
2,"O=C(Cc1ccc2nc(N3CCc4ccccc43)oc2c1F)N1C[C@@H](F)C[C@H]1CO[C@H]1CC[C@H](C(=O)O)CC1 [Example 105, trans-4-(1-((7-fluoro-2-(1-indolinyl)-6-benzoxazolyl)acetyl)-(4S)-fluoro-(2S)-pyrrolidinylmethoxy)cyclohexanecarboxylic acid]",42 nM
3,"Cn1cc(-c2nc3ccc(CC(=O)N4C[C@@H](F)C[C@H]4CO[C@H]4CC[C@H](C(=O)O)CC4)c(F)c3o2)c2cc(F)ccc21 (relative stereo) [Example 101, trans-4-(1-((2-(5-Fluoro-1-methyl-3-indolyl)-7-fluoro-6-benzoxazolyl)acetyl)-(4S)-fluoro-(2S)-pyrrolidinylmethoxy)cyclohexanecarboxylic acid]",8.1 nM
4,"C[C@@H](CO[C@H]1CC[C@H](C(=O)O)CC1)N(C)C(=O)Cc1cc(Cl)c(NC(=O)c2cn(C)c3ccccc23)cc1F [Example 144, trans-4-((2S)-((5-Chloro-2-fluoro-4-(1-methyl-3-indolylcarbonylamino)phenyl)-N-methylacetamido)-1-propoxy)-1-cyclohexanecarboxylic acid]",48 nM
5,"O=C(Cc1ccc2nc(-c3cccc4ccccc34)oc2c1)N1C[C@@H](F)C[C@H]1CO[C@H]1CC[C@H](C(=O)O)CC1 [Example 95, trans-4-(1-(2-(1-Naphthyl)-6-benzoxazolylacetyl)-(4S)-fluoro-(2S)-pyrrolidinylmethoxy)cyclohexanecarboxylic acid]",34 nM
6,"Cc1c(F)cccc1Nc1nc2ccc(CC(=O)N3C[C@@H](F)C[C@H]3CO[C@H]3CC[C@H](C(=O)O)CC3)c(F)c2o1 [Example 46, trans-4-(1-((2-(3-fluoro-2-methylphenylamino)-7-fluoro-6-benzoxazolyl)acetyl)-(4S)-fluoro-(2S)-pyrrolidinylmethoxy)cyclohexanecarboxylic acid]",37 nM
7,"COc1cc(CC(=O)N2C[C@@H](F)C[C@H]2COc2ccc(C(=O)O)cc2)cc2oc(Nc3ccccc3C)nc12 [Example 3, 4-((4S)-Fluoro-1-(4-methoxy-2-(2-methylphenylamino)-6-benzoxazolylacetyl)-(2S)-pyrrolidinylmethoxy)benzoic acid]",40 nM
8,"Cc1ccc(F)cc1Nc1nc2ccc(CC(=O)N(C)[C@@H](C)CO[C@H]3CC[C@H](C(=O)O)CC3)c(F)c2o1 [Example 145, trans-4-((2S)-((7-Fluoro-2-((5-fluoro-2-methylphenyl)amino)-6-benzoxazolyl)-N-methylacetamido)-1-propoxy)-1-cyclohexanecarboxylic acid]",18 nM
9,"Cc1ccccc1Nc1nc2ccc(CC(=O)N3C[C@@H](O)C[C@H]3COc3ccc(C(=O)O)cc3)cc2o1 [Example 8, 4-((2S,4S)-4-Hydroxy-1-(2-(2-methylphenylamino)-6-benzoxazolylacetyl)-2-pyrrolidinylmethoxy)benzoic acid]",24 nM

# Other lines, results leading:
row,Ki,SMILES
1,1.4 nM,"Cc1ccccc1Nc1nc2ccc(CC(=O)N3C[C@@H](S(=O)(=O)c4ccccc4)C[C@H]3CO[C@H]3CC[C@H](C(=O)O)CC3)cc2o1 [Example 124, trans-4-(1-((2-(2-Methylphenylamino)-6-benzoxazolyl)acetyl)-(4S)-phenylsulfonyl-(2S)-pyrrolidinylmethoxy)cyclohexanecarboxylic acid]"
2,9.7 nM,"CS[C@H]1C[C@@H](CO[C@H]2CC[C@H](C(=O)O)CC2)N(C(=O)Cc2cc(Cl)c(NC(=O)c3nn(C)c4ccccc34)cc2F)C1 [Example 127, trans-4-(1-((5-Chloro2-fluoro-4-((1-methyl-3-indazolylcarbonyl)amino)phenyl)acetyl)-(4S)-methylthio-(2S)-pyrrolidinylmethoxy)cyclohexanecarboxylic acid]"
3,5.9 nM,"Cn1cc(C(=O)Nc2cc(F)c(CC(=O)N3C[C@@H](OC4CCCCC4)C[C@H]3CO[C@H]3CC[C@H](C(=O)O)CC3)cc2Cl)c2ccccc21 [Example 119, trans-4-(1-((5-Chloro-2-fluoro-4-(1-methyl-3-indolylcarbonylamino)phenyl)acetyl)-(4S)-cyclohexyloxy-(2S)-pyrrolidinylmethoxy)cyclohexanecarboxylic acid]"
4,10 nM,"Cc1cccc2oc(Nc3ccc(CC(=O)N4C[C@@H](F)C[C@H]4CO[C@H]4CC[C@H](C(=O)O)CC4)cc3Cl)nc12 [Example 52, trans-4-(1-(3-Chloro-4-(2-(4-methylbenzoxazolyl))aminophenylacetyl)-(4S)-fluoro-(2S)-pyrrolidinylmethoxy)cyclohexanecarboxylic acid]"
5,2 nM,"Cc1ccccc1Nc1nc2ccc(CC(=O)N3C[C@@H](F)C[C@H]3COC3CCC(C(=O)O)CC3)c(F)c2o1 (single isomer, unassigned) [26 (Isomer A)]"
6,14 nM,"Cc1ccccc1Nc1nc2ccc(CC(=O)N3C[C@@H](F)C[C@H]3COc3ccc(C(=O)O)cc3)c(F)c2o1 [Example 6, 4-((2S,4S)-1-(7-Fluoro-2-(2-methylphenylamino)-6-benzoxazolylacetyl)-4-fluoro-2-pyrrolidinylmethoxy)benzoic acid]"
7,17 nM,"Cn1cc(C(=O)Nc2cc(F)c(CC(=O)N3CC(F)(F)C[C@H]3CO[C@H]3CC[C@H](C(=O)O)CC3)cc2Cl)c2ccccc21 (mixture of isomers) [Example 143, trans-4-(1-(5-Chloro-2-fluoro-4-(1-methyl-3-indolylcarbonylamino)phenylacetyl)-4,4-difluoro-(2S)-pyrrolidinylmethoxy)cyclohexanecarboxylic acid and cis-4-(1-(5-chloro-2-fluoro-4-(1-methyl-3-indolylcarbonylamino)phenylacetyl)-4,4-difluoro-(2S)-pyrrolidinylmethoxy)cyclohexanecarboxylic acid]"
8,17 nM,"Cc1ccccc1Nc1nc2ccc(CC(=O)N3C[C@@H](F)C[C@H]3COc3ccc(C(=O)O)cc3)cc2o1 [Example 2, 4-((4S)-Fluoro-1-(2-(2-methylphenylamino)-6-benzoxazolylacetyl)-(2S)-pyrrolidinylmethoxy)benzoic acid]"
9,1.5 nM,"Cn1nc(C(=O)Nc2cc(F)c(CC(=O)N3C[C@@H](S(C)(=O)=O)C[C@H]3CO[C@H]3CC[C@H](C(=O)O)CC3)cc2Cl)c2ccccc21 [Example 129, trans-4-(1-((5-Chloro-2-fluoro-4-((1-methyl-3-indazolylcarbonyl)amino)phenyl)acetyl)-(4S)-methanesulfonyl-(2S)-pyrrolidinylmethoxy)cyclohexanecarboxylic acid]"
10,11 nM,"Cn1cc(C(=O)Nc2cc(F)c(CC(=O)N3C[C@@H](F)C[C@H]3CN[C@H]3CC[C@H](C(=O)O)CC3)cc2Cl)c2ccccc21 [Example 107, trans-4-(N-(1-((5-Chloro-2-fluoro-4-((1-methyl-3-indolylcarbonyl)amino)phenyl)acetyl)-(4S)-fluoro-(2S)-pyrrolidinylmethyl)amino)cyclohexanecarboxylic acid]"
11,7 nM,"Cc1ccc(F)cc1Nc1nc2ccc(CC(=O)N3C[C@@H](F)C[C@H]3C(=O)N[C@H]3CC[C@H](C(=O)O)CC3)c(F)c2o1 [Example 110, trans-4-(((4S)-Fluoro-1-(2-(5-fluoro-2-methylphenylamino)-7-fluoro-6-benzoxazolylacetyl)-(2S)-pyrrolidinyl)carbonylamino)cyclohexanecarboxylic acid]"
12,0.43 nM,"O=C(Nc1ccc(CC(=O)N2C[C@@H](F)C[C@H]2COC2CCC(C(=O)O)CC2)cc1Cl)c1c[nH]c2ccccc12 (stereo partly drawn) [Example 38, 4-(1-(3-Chloro-4-(3-indolylcarbonylamino)phenylacetyl)-(4S)-fluoro-(2S)-pyrrolidinylmethoxy)cyclohexanecarboxylic acid]"
13,3.1 nM,Cc1ccc(F)cc1Nc1nc2ccc(CC(=O)N3C[C@@H](C)C[C@H]3CO[C@H]3CC[C@H](C(=O)O)CC3)c(F)c2o1 [Example 134]
14,8.8 nM,"Cc1cc(F)ccc1Nc1nc2ccc(CC(=O)N3C[C@@H](F)C[C@H]3CO[C@H]3CC[C@H](C(=O)O)CC3)c(F)c2o1 [Example 45, trans-4-(1-((2-(4-Fluoro-2-methylphenylamino)-7-fluoro-6-benzoxazolyl)acetyl)-(4S)-fluoro-(2S)-pyrrolidinylmethoxy)cyclohexanecarboxylic acid]"

# — patent publication US7157487B2, “Vla-4 inhibitors” (Daiichi Pharmaceutical Co., Ltd., priority 2000, dated 2007)
